Laboratory results taken from PubChem BioAssay AID1918934 (Molecular Pharmacology Branch, DTP, NCI, 2023).
Values joined by “and” are separate entries in the source; they are usually repeats but may differ in a detail not shown here. Identical values can stand only once.

Tested on: 292921-168-R-J2-PDC complex spheroid viability
Assay: Anticancer human tumor 292921-168-R-J2-PDC patient-derived pancreatic carcinoma cell line growth inhibition
Settings: for viability, T/C: stronger effect = lower value
Text: Multicellular complex tumor spheroid response to LSD1 Inhibitor Iadademstat in combination with a variety of drugs and investigational agents in selected tumor cell lines
The current study was undertaken to assess response to LSD1 inhibitors in combination with standard-of-care drugs and investigational agents in solid tumor complex spheroid models as well as in the K-562 leukemia. Complex spheroids include a stromal component modeled by human endothelial cells (HUVEC) and fibroblasts modeled by human mesenchymal stem cells (MSCs). The concentration ranges selected for each drug and investigational agent were based upon clinically achievable concentrations if the clinical Cmax of the agent was known.
Compounds. The drugs and investigational agents used in this study are listed on Table 1. All of the agents used, including staurosporine (NSC755774) and gemcitabine (NSC613327), were obtained from the Developmental Therapeutics Program, NCI. FDA-approved anticancer drugs are available from the NCI at http://dtp.nci.nih.gov/branches/dscb/oncology_drugset_explanation.html. Drugs and investigational agents were >95% pure by proton nuclear magnetic resonance (NMR) and liquid chromatography/mass spectrometry (LC/MS). Stock solutions were prepared at 400x in DMSO, stored at -70 degrees C, and diluted in fresh medium prior to their use. The final concentration of DMSO in cell culture wells never exceeded 0.25% (v/v). The FDA-approved anticancer drug set is available from the Developmental Therapeutics Program at https://dtp.cancer.gov/organization/dscb/obtaining/available_plates.htm. All drugs and investigational agents were tested over a range starting from a high concentration at or near the clinical Cmax and decreasing in half-log increments. If the clinical Cmax for an agent had not been determined, the highest concentration tested was 10 microM.
Cell Lines. The patient-derived cancer cell (PDC) lines: 292921-168-R-J2-PDC, K24384-001-R-PDC, and 521955-158-R2-J5-PDC pancreatic carcinomas, 556581-035-R-J1 ovarian carcinoma, 324938-238-R-J1-PDC, 855422-203-R-J1-PDC and 883617-216-R-J1-PDC urothelial bladder carcinomas, 743489-274-T-PDC renal cell carcinoma, 138582-R-J1 Merkel cell tumor, K60290-347-R-J1 and K57222-313-R-J1-PDC glioblastomas, 653999-131-R-J2-PDC, LG0703-F948-PDC, and 349418-098-R-PDC non-small cell lung carcinomas, 885512-296-R-J2-PDC, 171881-019-R-J1-PDC breast carcinomas and 186277-243-T-J2-PDC and 233499-124-R-J2-PDC colon carcinomas were obtained from the NCI Patient-Derived Models Repository (PDMR, https://pdmr.cancer.gov). The established cell lines NCI/ADR-RES (RRID:CVCL_14520 and OVCAR-5 (RRID:CVCL_1628) ovarian carcinomas, 786-O (RRID:CVCL_1051) and A498 (RRID:CVCL_A498) renal cell carcinoma, NCI-H211 (ATCC, cat. CRL-5824; RRID:CVCL_1529), NCI-H196 (ATCC, cat. CRL-5823, RRID:CVCL_1509), SW 1271 (ATCC, cat. CRL-2177, RRID:CVCL_1716) and NCI-H1876 (ATCC, cat. CRL-5902, RRID:CVCL_1503) small cell lung carcinomas, MDA-MB-231 (RRID:CVCL_0062) and MDA-MB-468 (RRID:CVCL_0419)breast carcinomas (10-12). Pooled donor human umbilical vein endothelial cells (HUVEC, Lonza, cat. CC-2519) and human mesenchymal stem cells (hMSC, Lonza, cat. PT-2501) were purchased from Lonza (Walkersville, MD).
Cell Culture. All cells were maintained in an incubator at 37 degrees C and 5% CO2 with 95% humidity. The PDC lines were cultured according to standard operating procedures established by the NCI PDMR (https://pdmr.cancer.gov). Briefly all PDCs were thawed and cultured in Matrigel-coated flasks prepared with a working solution of 1X Ham's F-12 nutrient mix, without supplementation (Invitrogen, Waltham, MA, cat. 11765054), 100 U/mL penicillin-streptomycin (Invitrogen, cat. 15140122), and 2.5% Matrigel (Corning Inc., Corning, NY, cat. 354248) for the first three passages. […]

[1] = curve of first compound, second compound 0.1 µM
[2] = curve of first compound, second compound 0.316 µM
[3] = curve of first compound, second compound 1 µM
[4] = curve of first compound, second compound 3.16 µM
[5] = curve of first compound, second compound 10 µM
[6] = second compound 0.1 µM, first compound 0.00316 µM
[7] = second compound 0.1 µM, first compound 0.01 µM
[8] = second compound 0.1 µM, first compound 0.0316 µM
[9] = second compound 0.1 µM, first compound 0.1 µM
[10] = second compound 0.1 µM, first compound 0.316 µM
[11] = second compound 0.1 µM, first compound 1 µM
[12] = second compound 0.316 µM, first compound 0.00316 µM
[13] = second compound 0.316 µM, first compound 0.01 µM
[14] = second compound 0.316 µM, first compound 0.0316 µM
[15] = second compound 0.316 µM, first compound 0.1 µM
[16] = second compound 0.316 µM, first compound 0.316 µM
[17] = second compound 0.316 µM, first compound 1 µM
[18] = second compound 1 µM, first compound 0.00316 µM
[19] = second compound 1 µM, first compound 0.01 µM
[20] = second compound 1 µM, first compound 0.0316 µM
[21] = second compound 1 µM, first compound 0.1 µM
[22] = second compound 1 µM, first compound 0.316 µM
[23] = second compound 1 µM, first compound 1 µM
[24] = second compound 3.16 µM, first compound 0.00316 µM
[25] = second compound 3.16 µM, first compound 0.01 µM
[26] = second compound 3.16 µM, first compound 0.0316 µM
[27] = second compound 3.16 µM, first compound 0.1 µM
[28] = second compound 3.16 µM, first compound 0.316 µM
[29] = second compound 3.16 µM, first compound 1 µM
[30] = second compound 10 µM, first compound 0.00316 µM
[31] = second compound 10 µM, first compound 0.01 µM
[32] = second compound 10 µM, first compound 0.0316 µM
[33] = second compound 10 µM, first compound 0.1 µM
[34] = second compound 10 µM, first compound 0.316 µM
[35] = second compound 10 µM, first compound 1 µM
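Also: seven day compound exposure before luminescent viability read.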
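For viability, T/C in this document: 100% = DMSO vehicle control wells.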

Structure (SMILES) | IC50 [1] | IC50 [2] | IC50 [3] | IC50 [4] | IC50 [5] | viability, T/C [6] | viability, T/C [7] | viability, T/C [8] | viability, T/C [9] | viability, T/C [10] | viability, T/C [11] | viability, T/C [12] | viability, T/C [13] | viability, T/C [14] | viability, T/C [15] | viability, T/C [16] | viability, T/C [17] | viability, T/C [18] | viability, T/C [19] | viability, T/C [20] | also measured
Nc1ncn(C2CC(O)C(CO)O2)c(=O)n1 (configuration not stated) + NC1CCC(NC2CC2c2ccccc2)CC1 | 0.279 µM | 0.103 µM | 0.064 µM | 0.105 µM | 0.0405 µM | 63.8% | 70.5% | 62.2% | 49.6% | 50.2% | 44.2% | 67% | 69% | 61.5% | 49.8% | 46.6% | 42.6% | 59.7% | 58.6% | 52.8% | viability, T/C [21]: 45.2%; viability, T/C [22]: 47%; viability, T/C [23]: 42.7%; viability, T/C [24]: 54.8%; viability, T/C [25]: 53.9%; viability, T/C [26]: 55.1%; viability, T/C [27]: 52.3%; viability, T/C [28]: 41.3%; viability, T/C [29]: 35.6%; viability, T/C [30]: 53.1%; viability, T/C [31]: 57.4%; viability, T/C [32]: 49.3%; viability, T/C [33]: 45.8%; viability, T/C [34]: 36%; viability, T/C [35]: 35.4%
CC1COCCN1c1cc(-c2ccnn2C)c2ccnc(-c3ccn[nH]3)c2n1 (configuration not stated) + NC1CCC(NC2CC2c2ccccc2)CC1 | < 0.00316 µM | < 0.00316 µM | < 0.00316 µM | < 0.00316 µM | < 0.00316 µM | 14.1% | 12.3% | 13% | 16.4% | 18.4% | 19.3% | 15.7% | 14.8% | 12% | 15.7% | 16.9% | 18.3% | 14.4% | 15.1% | 13.5% | viability, T/C [21]: 14.2%; viability, T/C [22]: 14.8%; viability, T/C [23]: 17.2%; viability, T/C [24]: 15.7%; viability, T/C [25]: 15.5%; viability, T/C [26]: 12.2%; viability, T/C [27]: 13.5%; viability, T/C [28]: 15.3%; viability, T/C [29]: 16%; viability, T/C [30]: 13.7%; viability, T/C [31]: 14%; viability, T/C [32]: 12.3%; viability, T/C [33]: 12.5%; viability, T/C [34]: 14.2%; viability, T/C [35]: 17.3%
COc1cc(Nc2ncc3c(n2)-c2ccc(Cl)cc2C(c2c(F)cccc2OC)=NC3)ccc1C(=O)O + NC1CC1c1ccc(-c2cccc(O)c2)cc1 | < 0.00316 µM | < 0.00316 µM | < 0.00316 µM | < 0.00316 µM | < 0.00316 µM | 36.8% | 40.9% | 37.5% | 31.9% | 24.1% | 16.4% | 39.2% | 44.5% | 37.5% | 31.4% | 24.8% | 16.5% | 37.2% | 35.9% | 34.6% | viability, T/C [21]: 26%; viability, T/C [22]: 20.2%; viability, T/C [23]: 15.9%; viability, T/C [24]: 30.4%; viability, T/C [25]: 36.5%; viability, T/C [26]: 35.2%; viability, T/C [27]: 28.1%; viability, T/C [28]: 23.7%; viability, T/C [29]: 15%; viability, T/C [30]: 34.2%; viability, T/C [31]: 32.7%; viability, T/C [32]: 34.2%; viability, T/C [33]: 28%; viability, T/C [34]: 19.4%; viability, T/C [35]: 14.9%
CC(C)c1c(-c2ccccc2)nc2c(C#N)c[nH]n2c1=O | – | – | – | – | – | – | – | – | – | – | – | – | – | – | – | – | – | – | – | – | viability, T/C (compound 0.0316 µM): 100% and 101%; viability, T/C (compound 0.1 µM): 97.6% and 101%; viability, T/C (compound 0.316 µM): 102% and 93.6%; viability, T/C (compound 1 µM): 106% and 98.2%; viability, T/C (compound 3.16 µM): 102% and 105%; viability, T/C (compound 10 µM): 65.2% and 70.4%; IC50 (curve of compound): > 10 µM
